Consider two molecules from patent publication US20230255912A1, “COMPOSITIONS AND METHODS FOR TREATING CRP-MEDIATED DISEASES” (Ponce de Leon Health Designated Activity Company, priority 2020, published 2023).

The structures appear in SMILES notation. Where two headings read alike, the source gives them in different places.

One data set relates to CRP. Description: Blood chemistry of a human volunteer: CRP. Format: in vivo. As to conditions: for CRP: 1,000 mg Ca-AKG + 900 mcg Vitamin A daily, oral, baseline 4.9. The text has this:
METHOD EXAMPLE. Blood chemistry. […] The following results were obtained:

For data set [1] the following is noted: for Total/HDL: baseline 2.9; for Alkaline phosphatase: baseline 44; for HDL: baseline 64; for Triglycerides: baseline 85; for Glucose: baseline 95; for Cholesterol: baseline 184; for Platelets: baseline 359. An excerpt: METHOD EXAMPLE. Blood chemistry. […] Prior to the start of dosing, a baseline blood draw is obtained for hematology, chemistry, CRP measurement, and metabolite analyses. After the start of dosing, blood draws are obtained monthly.

The test system of a further data set is inflammatory cytokines. Particulars: female mice, 29 months. The protocol: METHOD EXAMPLE. Cytokine Levels in Aged Mice. Female mice (18 months) are divided into treatment and untreated groups. Baseline levels of 30 inflammatory cytokines are measured. […] Following treatment, levels of 30 inflammatory cytokines are measured from serum samples and compared to untreated controls.

[2] abbreviates: compared to aged controls, p<0.05.

On to `O=C(O)CCC(=O)C(=O)O` [AKG, 2-oxopentanedioic acid], for which, in the data set on CRP (human volunteer, baseline vs 12 months), the “lowering of CRP” value was “more than 10 fold”. In data set [1] (human volunteer, vs baseline), the levels of triglycerides entry is “improves” and the “other important biological markers, such as platelets, glucose, PSA” value is “does not adversely affect”.
In the case of `O.O=C([O-])CCC(=O)C(=O)[O-].[Ca+2]` [Ca-AKG, calcium alpha-ketoglutarate monohydrate], in the data set on inflammatory cytokines (setting [2]), the “level of IL-3” value is given as “significantly lower”, the “level of IL-7” value is reported as “significantly lower”, the “level of MIP-1β” value is on record as “significantly lower” and the “level of TNF-α” value was “significantly lower”. The “levels of IL-3, IL-7, TNF-α, and MIP-1β compared to the 18 month baseline” value in the data set with inflammatory cytokines (treatment group vs 18 month baseline) is reported as “statistically indistinguishable”. Further, in the data set with CRP (10 Months), the CRP stood at 2.5 mg/L. Also, in the data set on CRP (12 Months), the CRP is on record as 0.4 mg/L. In addition, in data set [1] (10 Months), the Total/HDL is given as 2.4, the Alkaline phosphatase is given as 40 U/L, the HDL was 76 mg/dL and the Triglycerides is on record as 49 mg/dL. In data set [1] (10 Months), the Glucose is 104 mg/dL, the Cholesterol is given as 184 mg/dL and the Platelets was found to be 392 K/CUMM. For the same molecule, in data set [1] (12 Months), the Total/HDL worked out at 2.4, the Alkaline phosphatase is on record as 30 U/L, the HDL stood at 76 mg/dL and the Triglycerides was found to be 52 mg/dL. In data set [1] (12 Months), this molecule registered a Glucose of 99 mg/dL, a Cholesterol of 181 mg/dL and a Platelets of 332 K/CUMM.
